Where two headings read alike, the source gives them in different places.

One series deals with EC spheroids. In words: In vitro EC spheroid sprouting assay. It counts as cell-based. From the text: (§1) In angiogenic EC monolayers, CPT1a knock down (KD) reduced EC proliferation by 40% as measured by ^3H thymidine incorporation (see FIG. 2). Furthermore, CPT1a KD EC were found more frequently in the G0/G1 phase of the cell cycle. EC migration on the other hand was not affected as measured by scratch wound assay and modified Boyden chamber even when proliferation was blocked using mitomycin C (see FIG. 3). To study the effect of CPT1a KD on vessel sprouting, an in vitro EC spheroid sprouting assay was employed. In this model, EC are cultured in suspension to form spheroids in hanging drops, embedded in a collagen I matrix and subsequently stimulated with growth factors to allow sprouts to be formed. In this model, a tip cell with filopodia leads the sprout while the stalk cells trail behind and proliferate to elongate the sprout. […] To further investigate this observation, a mosaic spheroid model was employed to assess tip cell competition. Here, 50% WT^RED and 50% WT^GFP cells are mixed and, when the spheroids have sprouted, which one is at the tip is determined. In this model, tip cell position can be determined via migration and/or proliferation. In case of a WT/WT mixture, 50% green and 50% red cells are at the tip. However, when 50% WT^RED cells are mixed with 50% CPT1a^KD/GFP cells, less green cells were present at the tip. This effect was abrogated when spheroids were treated with mitomycin C.

The target in a further series is T1, CPT1a (Homo sapiens, UniProt P50416).
T1 construct: of the three isoforms, CPTla is the most abundant in ECs; endogenous in cells; host or cells: endothelial cells (ECs)
T1 sequence (P50416 1-773): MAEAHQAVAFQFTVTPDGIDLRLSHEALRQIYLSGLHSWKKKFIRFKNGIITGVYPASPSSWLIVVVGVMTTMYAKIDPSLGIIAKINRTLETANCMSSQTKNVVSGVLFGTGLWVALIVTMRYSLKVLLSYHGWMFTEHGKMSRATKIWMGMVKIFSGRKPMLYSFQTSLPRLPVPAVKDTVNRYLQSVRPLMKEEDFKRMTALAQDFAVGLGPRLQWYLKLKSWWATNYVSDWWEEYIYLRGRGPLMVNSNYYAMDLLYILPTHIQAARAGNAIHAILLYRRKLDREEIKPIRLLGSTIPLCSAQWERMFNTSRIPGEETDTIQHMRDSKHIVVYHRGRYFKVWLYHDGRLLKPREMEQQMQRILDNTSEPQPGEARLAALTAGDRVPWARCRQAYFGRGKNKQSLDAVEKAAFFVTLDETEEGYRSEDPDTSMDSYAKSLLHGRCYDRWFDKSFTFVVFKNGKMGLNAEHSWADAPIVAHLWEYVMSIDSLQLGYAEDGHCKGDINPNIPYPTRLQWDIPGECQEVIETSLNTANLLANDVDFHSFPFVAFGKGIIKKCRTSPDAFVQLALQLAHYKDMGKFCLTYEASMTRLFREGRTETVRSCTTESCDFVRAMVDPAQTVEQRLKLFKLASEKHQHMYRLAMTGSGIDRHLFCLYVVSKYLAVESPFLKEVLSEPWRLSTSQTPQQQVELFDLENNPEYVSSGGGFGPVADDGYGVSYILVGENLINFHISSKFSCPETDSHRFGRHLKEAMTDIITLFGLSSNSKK
The experiment in a line: CPT1a protein levels after shRNA knock down in ECs. Type of series: cell-based. From the text: (§2) CPT1 enzymes are rate limiting for fatty acid oxidation and, of the three isoforms, CPTla is the most abundant in ECs. To explore the functional relevance of CPT1a in ECs, its expression was compared in quiescent versus angiogenic EC monolayers. Strikingly, CPT1a RNA and protein levels were increased during contact inhibition—an in vitro model of quiescence—when compared to proliferating/migrating ECs. […] To correlate these expression levels to functional relevance, fatty acid oxidation was measured using a ^3H-9,10-palmitic acid tracer. […] To confirm that fatty acid oxidation in ECs is primarily CPT1a driven, its expression was blocked using a shRNA directed against CPT1a. The shRNA sequence used was 5′-[…] […]-3′ (SEQ ID NO:1).
(§3) Even more, using notch signaling as a model of quiescence, the notch-induced increase in FAO was abrogated upon CPT1a KD.

The next series relates to angiogenic EC monolayers. The experiment in a line: 3H thymidine incorporation assay (EC proliferation). It counts as cell-based.
Text: as §1, with “This effect was abrogated when spheroids were treated with mitomycin C.” left out
A general note: Incorporation of labelled thymidine or its analogues reports DNA synthesis.

In series [1] the test system is ECs. The experiment in a line: Energy charge, ATP levels and AMPK phosphorylation in ECs. It counts as cell-based. An excerpt: Next, how fatty acid oxidation could exert its proliferation-dependent effects on vessel sprouting was questioned. Through fueling the TCA with […] molecules of acetyl-COA, 1 palmitate can generate much more ATP via oxidative phosphorylation compared to 1 glucose. However, as was shown previously, angiogenic ECs rely primarily on glycolysis for ATP production. Nevertheless, it was desired to rule out that the CPT1a-induced proliferation defect was caused by ATP depletion. […] One would also expect that whenever cells are in ATP distress, they would up-regulate a major ATP-producing pathway. […] Furthermore, no signs of energy distress were observed, as shown by AMPK-p, and no induction of autophagy was observed as measured by LC3.

Series [2] has as its system ECs. The experiment in a line: Intracellular H2O2 levels in ECs. Type of series: cell-based. From the text: Proliferation requires many building blocks such as protein, RNA, DNA, . . . to allow duplication of one cell into two daughter cells. Up until now, the role of mitochondria in ECs was thought to be for signaling purposes and not so much for biomass production, as ECs are highly glycolytic. […] FAO can fuel the TCA cycle with […] molecules of acetyl COA, thereby providing plenty of intermediates for biomass as well as producing NADPH that can be used for anti-oxidant defense or lipid synthesis. […] However, this increase in ROS could not explain the proliferation defect as no DNA damage checkpoint was activated in these cells as measured by ATM-P, p53 and p21 levels. […] Therefore, it was hypothesized that blocking FAO would reduce TCA intermediates needed for biomass production. Even more, using ^13C palmitate, it was shown that CPT1a KD cells incorporate less 13C label in TCA intermediates and in biomass.

The test system of series [3] is ECs. The experiment in a line: Scratch wound assay and modified Boyden chamber (EC migration). It counts as cell-based. The note with it: scratch wound assay, modified Boyden chamber.
Text: as §1, with “This effect was abrogated when spheroids were treated with mitomycin C.” left out

The subject of another series is endothelial cells (ECs). The experiment in a line: 3H palmitate oxidation assay (fatty acid oxidation, 3H-9,10-palmitic acid tracer). It counts as cell-based.
Text: as §2, §3

Series [4] can be described thus: Palmitate uptake and incorporation in organs. It counts as in vivo, mice. The following applies: pups.
Series [5] can be described thus: Tolerability in etomoxir-treated pups (body weight, heart H&E staining). Type of series: in vivo, mice.
Series [6] deals with choroidal neovascularization (CNV) in male C57BL/6 mice. In words: Laser-induced choroidal neovascularization (CNV) model. The following applies: 35 mg/kg i.p. daily, two weeks, vs vehicle. Type of series: in vivo. From the text:
The protein extravasation and hemorrhage associated with choroidal neovascularization (CNV) are primary causes of severe vision loss in retinal diseases such as age-related macular degeneration (ARMD). In ARMD the normal barrier function of Bruch's membrane is compromised, and CNV can develop, either under the retinal pigment epithelium (RPE) or photoreceptor outer segments. The choroidal neovascularization model serves as a reliable disease model for macular degeneration. Choroidal neovascularization (CNV) is induced in mice by laser burn. Laser burn (400 mW) is performed with Alcon PUREPOINT® equipment. CNV is measured by investigators masked to treatment. Eyes are enucleated after retrobulbar perfusion with FITC-dextran (HMW) and flat mounted. The CNV area, total lesion area, and their ratio are analyzed using Zeiss Axio Imager Z1 microscope with macros (KS300 image analysis software) on FITC-perfused (200 μL; 25 mg/mL; 10 minutes) flat mounts. The intraocular administration of siRNAs directed against CPT1a or the use of chemical inhibitors against CPT1a, is carried out, prior to or shortly after the induction of the laser burn, in the above-described murine model for age-related macular degeneration. […]

With `CC(=O)O` [acetate], in the series on EC spheroids (20 mM supplementation), the “rescue of reduced sprouting of CPT1a knock down spheroids” value is “rescued”.

In the case of “shCPT1a: shRNA directed against CPT1a, SEQ ID NO:1: 5'-CCGGGCCATGAAGCTCTTAGACAAACTCGAGTTTGTCTAAGAGCTTCATGGCTTTTTG-3'”, the CPT1a protein levels entry with CPT1a is given as “nearly undetectable levels”. For the same compound, the “proliferation (in words)” value in the series on angiogenic EC monolayers is reported as “reduced proliferation”. For the same compound, the “reduction of EC proliferation” value in the series on angiogenic EC monolayers (angiogenic EC monolayers) turned out to be 40%. Moreover, the “ATP distress (Western blot for AMPK phosphorylation)” value in the series on ECs [1] is “does not show any ATP distress”. In the series with ECs [1], the energy charge entry is reported as “did not affect”. Also, in the series on ECs [2], the “increase in intracellular H2O2 levels” value is 40%. Further, the EC migration result was “no differences in migration” with ECs [3] and “not affected” in the series on ECs [3] (listed as CPT1a KD). Further, the fatty acid oxidation result was “reduced fatty acid oxidation” in the series with endothelial cells (ECs) and “significantly reduced” with endothelial cells (ECs) (listed as shRNA directed against CPT1a). For the same compound, the “vessel sprouting of EC spheroids” value in the series with EC spheroids (collagen I matrix, growth factor stimulated) was “fewer and shorter sprouts”.

With `CC(=O)N[C@@H](CS)C(=O)O` [NAC], the “rescue of reduced sprouting upon CPT1a silencing in quiescent spheroids” value in the series on EC spheroids (NICD overexpression model of quiescence) is listed as “did rescue the phenotype”.

As to `CCOC(=O)[C@@]1(CCCCCCOc2ccc(Cl)cc2)CO1` [etomoxir], in series [4], the “14C palmitate uptake in organs” value was “significantly reduced” and the “incorporation of 13C palmitate in TCA intermediates in organs” value is “significantly reduced”. For the same compound, the “defects in the heart (H&E staining)” value in series [5] is on record as “did not cause any defects in the heart”. In addition, in series [6], the “reduction of neovascularization area” value is listed as “less than 50%”. Also, in [6] (p<0.05), the “pathological neovascular area (in words)” value is “reduced the pathological neovascular area”.

The values are drawn from patent US20160166532A1, “CARNITINE PALMITOYLTRANSFERASE 1 INHIBITORS FOR INHIBITION OF PATHOLOGICAL ANGIOGENESIS” (VIB VZW, priority 2013, published 2016).
